One experiment deals with SAOS-2. In words: cells. The note with it: Homo sapiens, SAOS-2, 24 h.
Experiment [1] relates to U2OS. In words: cells. The note with it: Homo sapiens, 24 h.
Description: Cytotoxicity against wild type p53 expressing human U2OS cells assessed as cell growth inhibition after 24 hrs by MTT assay
Experiment [2] can be described thus: Selectivity ratio of IC50 for human Saos2 cells to IC50 for human U2OS cells.
For experiment [3], the system named is U2OS. In words: Cell cycle arrest in wild type p53 expressing human U2OS cells assessed as increase in accumulation at G1 phase at 10 uM after 24 hrs by propidium iodide-based FACS analysis. The format is functional. For orientation: In flow cytometry, cells or beads pass a laser one at a time.
The subject of experiment [4] is U2OS. Nature of the experiment: Cell cycle arrest in wild type p53 expressing human U2OS cells assessed as decrease in accumulation at S phase at 10 uM after 24 hrs by propidium iodide-based FACS analysis. Format: functional.
For experiment [5], the target named is E3 ubiquitin-protein ligase Mdm2 (Homo sapiens) (UniProt Q00987). In words: Inhibition of p53-MDM2 interaction in human U2OS cells assessed as p53 activation by measuring p21 accumulation at 1 uM after 7 hrs by Western blot analysis. Format: cell-based.
Chain of E3 ubiquitin-protein ligase Mdm2 (Homo sapiens) (Q00987 whole entry, looked up): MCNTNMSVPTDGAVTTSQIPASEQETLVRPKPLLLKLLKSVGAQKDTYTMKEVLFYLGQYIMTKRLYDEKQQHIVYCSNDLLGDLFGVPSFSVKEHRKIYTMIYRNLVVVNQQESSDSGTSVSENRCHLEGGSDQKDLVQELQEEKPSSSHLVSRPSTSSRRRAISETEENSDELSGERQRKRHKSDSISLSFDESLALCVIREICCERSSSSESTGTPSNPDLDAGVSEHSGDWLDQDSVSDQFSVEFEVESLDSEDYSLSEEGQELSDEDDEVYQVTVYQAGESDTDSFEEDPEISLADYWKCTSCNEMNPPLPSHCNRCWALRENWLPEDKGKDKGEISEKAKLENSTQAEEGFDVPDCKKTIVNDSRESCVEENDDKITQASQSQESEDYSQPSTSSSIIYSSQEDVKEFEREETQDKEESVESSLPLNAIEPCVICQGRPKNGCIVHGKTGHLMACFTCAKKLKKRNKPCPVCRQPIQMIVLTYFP
The subject of experiment [6] is U2OS. Nature of the experiment: Cell cycle arrest in wild type p53 expressing human U2OS cells assessed as increase in accumulation at G1 phase at 1 uM after 24 hrs by propidium iodide-based FACS analysis. The format is functional.
Experiment [7] has as its target E3 ubiquitin-protein ligase Mdm2 (Homo sapiens) (UniProt Q00987). Nature of the experiment: Inhibition of p53-MDM2 interaction in human U2OS cells assessed as p53 accumulation at 1 uM after 7 hrs by Western blot analysis. The format is cell-based. In general terms: Immunoblotting shows a protein as a band on a membrane.
Experiment [8] shares this target. In words: Inhibition of p53-MDM2 interaction in human U2OS cells assessed as p53 activation by measuring increase in p21 expression at 1 uM after 24 hrs by Western blot analysis. Format: cell-based.
For experiment [9] the target is unchanged. In words: Inhibition of p53-MDM2 interaction in human HCT116 cells assessed as p53 activation by measuring increase in p21 expression at 1 uM after 24 hrs by Western blot analysis. Format: cell-based.
Experiment [10] shares this target. Nature of the experiment: Inhibition of p53-MDM2 interaction in human HCT116 cells assessed as p53 activation by measuring increase in MDM2 expression at 1 uM after 7 hrs by Western blot analysis. The format is cell-based.
The test system of experiment [11] is U2OS. In words: Cell cycle arrest in wild type p53 expressing human U2OS cells assessed as decrease in accumulation at S phase at 1 uM after 24 hrs by propidium iodide-based FACS analysis. The format is functional.
Experiment [12] addresses E3 ubiquitin-protein ligase Mdm2 (Homo sapiens) (UniProt Q00987). In words: Inhibition of p53-MDM2 interaction in human U2OS cells assessed as p53 activation by measuring increase in MDM2 expression at 1 uM after 7 hrs by Western blot analysis. The format is cell-based.
In experiment [13] the test system is U2OS. Nature of the experiment: Cell cycle arrest in wild type p53 expressing human U2OS cells assessed as decrease in accumulation at S phase at 5 uM after 24 hrs by propidium iodide-based FACS analysis. Format: functional.
The test system of experiment [14] is U2OS. In words: Cell cycle arrest in wild type p53 expressing human U2OS cells assessed as increase in accumulation at G1 phase at 5 uM after 24 hrs by propidium iodide-based FACS analysis. Format: functional.

Activity calls are given as the source filed them. The calls are words filed in the database; no cut-off is given here.

Description for SAOS-2: Cytotoxicity against p53 deficient human Saos2 cells assessed as cell growth inhibition after 24 hrs by MTT assay

On to `COc1ccc(C2=N[C@H](c3ccc(Cl)cc3)[C@H](c3ccc(Cl)cc3)N2C(=O)N2CCNC(=O)C2)c(OC(C)C)c1`, for which the IC50 was determined as 20.2 µM with SAOS-2 and 2.66 µM in the experiment with U2OS [1]. In [2], the “Ratio IC50” value amounted to 7.59.
With `O=C(O)c1[nH]c2cc(Cl)ccc2c1-c1c(-c2ccc(F)cc2)ncn1Cc1ccc(Cl)cc1`, the outcome in the experiment with U2OS [3] and with U2OS [4] was Active. Further, the IC50 turned out to be 55.8 µM with SAOS-2 and 17.4 µM in the experiment with U2OS [1].
For `COc1cc(C(=O)O)ccc1NC(=O)[C@@H]1N[C@@H](CC(C)(C)C)[C@](C#N)(c2ccc(Cl)cc2F)[C@H]1c1cccc(Cl)c1F`, the inhibition result in experiment [5], in experiment [7], in [8], in experiment [9], in experiment [10] and in experiment [12] was “Active” throughout. The result with U2OS [6] and in the experiment with U2OS [11] was Active.
For `O=C(O)CCC(=O)NCCCCCCOC(=O)c1[nH]c2cc(Cl)ccc2c1-c1c(-c2ccc(F)cc2)ncn1Cc1ccc(Cl)cc1`, the result with U2OS [13] and in the experiment on U2OS [14] was Active.
In the case of `O=C(NCCN1CCOCC1)c1[nH]c2cc(Cl)ccc2c1-c1c(-c2ccc(F)cc2)ncn1Cc1ccc(Cl)cc1`, the result with U2OS [3], in the experiment with U2OS [13], in the experiment with U2OS [14] and in the experiment with U2OS [4] was Active. For the same molecule, the IC50 in the experiment with SAOS-2 came out at 7.15 µM; in the experiment with U2OS [1], 3.67 µM.
For `O=C(OCCN1CCOCC1)c1[nH]c2cc(Cl)ccc2c1-c1c(-c2ccc(F)cc2)ncn1Cc1ccc(Cl)cc1`, the IC50 in the experiment on SAOS-2 is 11.7 µM; in the experiment with U2OS [1], 7.27 µM. Further, the result in the experiment with U2OS [13] and in the experiment with U2OS [14] was Active.
For `O=C(O)CCC(=O)OCCCCCCOC(=O)c1[nH]c2cc(Cl)ccc2c1-c1c(-c2ccc(F)cc2)ncn1Cc1ccc(Cl)cc1`, the result in the experiment with U2OS [3] and in the experiment with U2OS [4] was Active.

Usually IC50 stands for the midpoint of a concentration-inhibition curve. Higher therefore signals a need for much substance.

The values are drawn from ChEMBL document CHEMBL4049459, “1,4,5-Trisubstituted Imidazole-Based p53-MDM2/MDMX Antagonists with Aliphatic Linkers for Conjugation with Biological Carriers” (J Med Chem, 2017).
